Values of other authors in patent US9409968B2, “Toll-like receptor-based biosensors” (University of Massachusetts, priority 2009, dated 2016).

Tested on: lupus-prone mice
Details: administered to lupus-prone mice

## 5′-TGCTCCTGGAGGGGTTGT-3′ (listed as DNA, chemistry not given here) [IRS 954]
  autoantibody production: reduction of autoantibody production
  disease symptoms: amelioration of disease symptoms
